The subject of test [1] is IL-2 induced STAT5 phosphorylation in spleenocytes. Kind of test: IL-2 induced STAT5 phosphorylation in spleenocytes. It counts as cell-based, mouse. The following applies: wild type mice, inhibitor 1 h, 10 ng/ml IL-2. As for the experimental part:
(A) Single cell suspensions were prepared from the spleens of wild type mice. […] Cells were then stimulated with 10 ng/ml IL-4 for 30 min and the levels of phosphorylated STAT6 determined by immunoblotting. (B) As (A) except cells were stimulated with 10 ng/ml IL-2 and the levels of phosphorylated STAT5 determined. (C) CD8 T cells were expanded from the lymph nodes of wild type and JAK3 Cys905Ser knockin mice. Cells were rested in the absence of IL-2 for 60 min then incubated with the indicated concentrations of PF-06651600 for a further 30 min before stimulation with 10 ng/ml of IL-2 for 30 min. The levels of phosphorylated STAT5 and total ERK1/2 were then determined.
Cells were lysed directly into SDS sample buffer and aliquots run on 10% polyacrylamide gels using standard methods. Proteins were transferred onto nitrocellulose membranes, and specific proteins were detected by immunoblotting. […] Bands were detected using Clarity ECL reagents from BioRad and imaged on a Licor Odyssey Fc system. Quantification was carried out using Licor Image Studio software. After correction for the ERK1/2 levels to account for loading differences, percentage inhibition was calculated relative to the IL-4 stimulated condition. IC50 values were calculated using the same methods as for the in vitro IC50 values.

For a further test, the system named is panel of 139 kinases. Kind of test: In vitro selectivity screen, whole panel. The test is classed as biochemical. The following applies: 1 μM, panel of 139 kinases in vitro. Here is the method:
(§1) For the in vitro kinase assay, JAK3 (5–20 mU diluted in 50 mM Tris pH 7.5, 0.1 mM EGTA, 0.05% β-mercaptoethanol, 1 mg/ml BSA) was assayed against PDKtide ([…]) in a final volume of 25.5 µl containing 50 mM Tris pH 7.5, 0.1 mM EGTA, 0.05% β-mercaptoethanol, 100 µM substrate peptide, 10 mM magnesium acetate and 0.02 mM [33P-γ-ATP] (50–1000 cpm/pmole) and incubated for 30 min at room temperature. Assays were started by the addition of the ATP and stopped by addition of 5 µl of 0.5 M (3%) orthophosphoric acid and then harvested onto P81 Unifilter plates with a wash buffer of 50 mM orthophosphoric acid. To determine the Km for ATP, assays were run using 1, 5, 10, 20, 50, 100, 200, 400, 500 μM ATP and Km derived by non-linear regression fitting to the Michaelis–Menten equation v = Vmax[S]/(Km + [S]). IC50 values for inhibitors via non-linear regression using a parameter model: Y = Bottom + (Top–Bottom)/(1 + (IC50/X)^HillSlope). Non-linear regression was carried out in Prism (version 8). In vitro selectivity screen was carried out as described previously.

For the next test, the target named is ABL (Homo sapiens, UniProt P00519). The test is described as follows: Selectivity screen ABL. It counts as biochemical. The following applies: 1 µM inhibitor, mean. Here is the method:
as §1

The target of a further test is Aurora A (Homo sapiens, UniProt O14965). The test is described as follows: Selectivity screen Aurora A. It counts as biochemical. The following applies: 1 µM inhibitor, mean.
Another test has as its target BRSK1 (Homo sapiens, UniProt Q8TDC3). The test is described as follows: Selectivity screen BRSK1. The test is classed as biochemical. The following applies: 1 µM inhibitor, mean.
The target in the next test is CK1γ2 (Homo sapiens, UniProt P78368). The test is described as follows: Selectivity screen CK1γ2. The test is classed as biochemical. The following applies: 1 µM inhibitor, mean. As for the experimental part: as §1
The next test concerns the target DDR2 (Homo sapiens, UniProt Q16832). Kind of test: Selectivity screen DDR2. It counts as biochemical. The following applies: 1 µM inhibitor, mean. As for the experimental part: as §1
Another test addresses DYRK3 (Homo sapiens, UniProt O43781). The test is described as follows: Selectivity screen DYRK3. It counts as biochemical. The following applies: 1 µM inhibitor, mean. Here is the method:
as §1

The target of a further test is EIF2AK3 (Homo sapiens, UniProt Q9NZJ5). Kind of test: Selectivity screen EIF2AK3. It counts as biochemical. The following applies: 1 µM inhibitor, mean. Here is the method:
as §1

In a further test the target is EPH-A4 (Homo sapiens, UniProt P54764). Kind of test: Selectivity screen EPH-A4. The following applies: 1 µM inhibitor, mean. It counts as biochemical. As for the experimental part:
as §1

In the next test the target is EPH-B2 (Homo sapiens, UniProt P29323). Kind of test: Selectivity screen EPH-B2. The following applies: 1 µM inhibitor, mean. It counts as biochemical. As for the experimental part:
as §1

The target in a further test is EPH-B3 (Homo sapiens, UniProt P54753). The test is described as follows: Selectivity screen EPH-B3. It counts as biochemical. The following applies: 1 µM inhibitor, mean. Here is the method:
as §1

The target of another test is IRAK1 (Homo sapiens, UniProt P51617). Kind of test: Selectivity screen IRAK1. The test is classed as biochemical. The following applies: 1 µM inhibitor, mean. Here is the method:
as §1

The target in the next test is IRAK4 (Homo sapiens, UniProt Q9NWZ3). The test is described as follows: Selectivity screen IRAK4. It counts as biochemical. The following applies: 1 µM inhibitor, mean. As for the experimental part:
as §1

Another test concerns the target JNK1 (Homo sapiens, UniProt P45983). The test is described as follows: Selectivity screen JNK1. It counts as biochemical. The following applies: 1 µM inhibitor, mean. Here is the method:
as §1

The target in a further test is Lck (Homo sapiens, UniProt P06239). The test is described as follows: Selectivity screen Lck. The test is classed as biochemical. The following applies: 1 µM inhibitor, mean. As for the experimental part:
as §1

The target in a further test is MARK1 (Homo sapiens, UniProt Q9P0L2). Kind of test: Selectivity screen MARK1. The following applies: 1 µM inhibitor, mean. The test is classed as biochemical. Here is the method: as §1
In another test the target is MARK4 (Homo sapiens, UniProt Q96L34). The test is described as follows: Selectivity screen MARK4. The following applies: 1 µM inhibitor, mean. It counts as biochemical. Here is the method: as §1
The target of another test is MLK1 (Homo sapiens, UniProt P80192). The test is described as follows: Selectivity screen MLK1. It counts as biochemical. The following applies: 1 µM inhibitor, mean. As for the experimental part:
as §1

A further test concerns the target PKBb (Homo sapiens, UniProt P31751). Kind of test: Selectivity screen PKBb. The following applies: 1 µM inhibitor, mean; read-out: activity remaining in the presence of the inhibitor: PKBb. The test is classed as biochemical. As for the experimental part: as §1
In the next test the target is PKD1 (Homo sapiens, UniProt Q15139). Kind of test: Selectivity screen PKD1. It counts as biochemical. The following applies: 1 µM inhibitor, mean. Here is the method:
as §1

The next test addresses RIPK2 (Homo sapiens, UniProt O43353). The test is described as follows: Selectivity screen RIPK2. The test is classed as biochemical. The following applies: 1 µM inhibitor, mean. As for the experimental part:
as §1

The target of the next test is SGK1 (Homo sapiens, UniProt O00141). Kind of test: Selectivity screen SGK1. It counts as biochemical. The following applies: 1 µM inhibitor, mean. As for the experimental part:
as §1

In a further test the target is STK33 (Homo sapiens, UniProt Q9BYT3). Kind of test: Selectivity screen STK33. The test is classed as biochemical. The following applies: 1 µM inhibitor, mean. As for the experimental part: as §1
In the next test the target is TIE2 (Homo sapiens, UniProt Q02763). Kind of test: Selectivity screen TIE2. The test is classed as biochemical. The following applies: 1 µM inhibitor, mean. Here is the method:
as §1

For the next test, the target named is TSSK1 (Homo sapiens, UniProt Q9BXA7). The test is described as follows: Selectivity screen TSSK1. It counts as biochemical. The following applies: 1 µM inhibitor, mean. Here is the method: as §1
The next test deals with YES1 (Homo sapiens, UniProt P07947). The test is described as follows: Selectivity screen YES1. The following applies: 1 µM inhibitor, mean. It counts as biochemical. Here is the method:
as §1

Chain of IRAK1 (P51617 whole entry): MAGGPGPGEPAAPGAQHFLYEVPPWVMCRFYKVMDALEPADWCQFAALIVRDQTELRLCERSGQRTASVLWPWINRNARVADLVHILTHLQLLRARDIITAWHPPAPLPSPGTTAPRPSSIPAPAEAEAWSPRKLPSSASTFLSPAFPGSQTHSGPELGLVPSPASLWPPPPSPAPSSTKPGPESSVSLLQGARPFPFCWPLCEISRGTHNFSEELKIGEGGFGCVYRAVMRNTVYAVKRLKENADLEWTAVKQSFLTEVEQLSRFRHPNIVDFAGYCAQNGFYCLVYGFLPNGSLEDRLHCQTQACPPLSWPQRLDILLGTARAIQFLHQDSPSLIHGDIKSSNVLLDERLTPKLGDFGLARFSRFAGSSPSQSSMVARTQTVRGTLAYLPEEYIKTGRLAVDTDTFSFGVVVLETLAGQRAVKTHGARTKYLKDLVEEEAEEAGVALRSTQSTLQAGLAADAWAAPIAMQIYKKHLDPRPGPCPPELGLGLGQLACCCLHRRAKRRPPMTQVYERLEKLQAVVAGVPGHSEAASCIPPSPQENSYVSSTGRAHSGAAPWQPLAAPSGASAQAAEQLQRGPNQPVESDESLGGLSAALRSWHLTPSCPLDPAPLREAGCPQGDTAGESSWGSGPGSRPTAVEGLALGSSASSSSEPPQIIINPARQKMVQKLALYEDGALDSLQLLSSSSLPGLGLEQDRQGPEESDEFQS
Chain of MARK1 (Q9P0L2 whole entry): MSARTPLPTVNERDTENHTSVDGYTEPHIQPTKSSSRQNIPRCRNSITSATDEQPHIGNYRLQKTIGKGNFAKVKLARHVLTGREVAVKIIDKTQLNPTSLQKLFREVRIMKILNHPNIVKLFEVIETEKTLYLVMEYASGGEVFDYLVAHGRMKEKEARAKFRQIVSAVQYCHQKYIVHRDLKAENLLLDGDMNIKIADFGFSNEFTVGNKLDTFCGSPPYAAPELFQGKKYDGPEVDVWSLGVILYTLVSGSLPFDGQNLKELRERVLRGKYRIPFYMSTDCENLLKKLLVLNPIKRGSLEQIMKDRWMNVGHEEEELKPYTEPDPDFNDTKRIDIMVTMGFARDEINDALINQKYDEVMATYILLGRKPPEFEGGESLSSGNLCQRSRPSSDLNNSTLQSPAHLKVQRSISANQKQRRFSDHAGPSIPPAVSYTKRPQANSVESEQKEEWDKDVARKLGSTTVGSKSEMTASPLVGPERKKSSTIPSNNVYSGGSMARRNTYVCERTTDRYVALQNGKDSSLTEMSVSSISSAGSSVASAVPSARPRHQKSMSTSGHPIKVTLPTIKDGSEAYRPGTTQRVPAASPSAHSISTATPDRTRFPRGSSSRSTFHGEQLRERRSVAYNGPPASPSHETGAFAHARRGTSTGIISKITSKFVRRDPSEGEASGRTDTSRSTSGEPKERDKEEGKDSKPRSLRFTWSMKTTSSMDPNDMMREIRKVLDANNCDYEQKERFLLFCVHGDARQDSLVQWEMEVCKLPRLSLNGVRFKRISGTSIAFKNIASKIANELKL
Chain of YES1 (P07947 whole entry): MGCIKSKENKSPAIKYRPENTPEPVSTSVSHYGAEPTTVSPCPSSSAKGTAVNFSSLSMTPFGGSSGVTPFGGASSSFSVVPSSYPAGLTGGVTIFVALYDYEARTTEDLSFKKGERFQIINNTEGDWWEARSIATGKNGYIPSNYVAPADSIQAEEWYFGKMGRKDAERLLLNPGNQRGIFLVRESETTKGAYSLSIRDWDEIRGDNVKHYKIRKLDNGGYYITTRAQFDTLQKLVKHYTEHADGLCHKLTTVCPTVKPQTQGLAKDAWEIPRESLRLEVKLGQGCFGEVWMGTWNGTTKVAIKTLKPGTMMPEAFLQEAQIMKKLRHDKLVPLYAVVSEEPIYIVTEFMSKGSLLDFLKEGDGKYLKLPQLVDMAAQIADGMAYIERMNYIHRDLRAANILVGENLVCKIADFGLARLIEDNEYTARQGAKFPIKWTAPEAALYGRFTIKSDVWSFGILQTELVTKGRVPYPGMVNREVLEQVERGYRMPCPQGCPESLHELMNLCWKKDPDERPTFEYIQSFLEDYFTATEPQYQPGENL
Chain of EIF2AK3 (Q9NZJ5 30-1116): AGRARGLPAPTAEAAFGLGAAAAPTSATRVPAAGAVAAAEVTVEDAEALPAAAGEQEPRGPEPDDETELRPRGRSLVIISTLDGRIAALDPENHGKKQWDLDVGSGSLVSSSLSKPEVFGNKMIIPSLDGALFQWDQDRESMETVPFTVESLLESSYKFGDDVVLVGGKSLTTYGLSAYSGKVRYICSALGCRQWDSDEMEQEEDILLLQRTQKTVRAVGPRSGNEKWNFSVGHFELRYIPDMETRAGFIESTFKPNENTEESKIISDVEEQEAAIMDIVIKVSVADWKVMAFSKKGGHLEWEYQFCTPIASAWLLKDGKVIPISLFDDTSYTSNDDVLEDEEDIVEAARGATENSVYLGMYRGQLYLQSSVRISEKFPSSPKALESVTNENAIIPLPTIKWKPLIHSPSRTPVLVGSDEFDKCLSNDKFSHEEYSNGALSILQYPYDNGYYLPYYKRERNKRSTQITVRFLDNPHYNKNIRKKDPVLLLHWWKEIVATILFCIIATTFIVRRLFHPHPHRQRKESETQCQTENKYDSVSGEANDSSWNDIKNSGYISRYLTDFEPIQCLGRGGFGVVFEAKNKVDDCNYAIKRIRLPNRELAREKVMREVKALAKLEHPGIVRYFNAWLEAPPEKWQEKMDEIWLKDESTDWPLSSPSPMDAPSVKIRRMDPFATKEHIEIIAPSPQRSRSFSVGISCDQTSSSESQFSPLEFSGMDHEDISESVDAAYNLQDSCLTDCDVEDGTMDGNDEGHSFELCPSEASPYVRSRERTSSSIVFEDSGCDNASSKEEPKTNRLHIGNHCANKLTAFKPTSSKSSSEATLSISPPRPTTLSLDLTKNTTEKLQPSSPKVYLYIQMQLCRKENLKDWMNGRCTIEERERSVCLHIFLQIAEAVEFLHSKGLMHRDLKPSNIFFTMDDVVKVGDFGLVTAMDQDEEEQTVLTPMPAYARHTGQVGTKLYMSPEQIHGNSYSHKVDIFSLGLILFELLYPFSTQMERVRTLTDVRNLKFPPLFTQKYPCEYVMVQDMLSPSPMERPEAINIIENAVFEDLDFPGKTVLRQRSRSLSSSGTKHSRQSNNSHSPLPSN
Chain of MARK4 (Q96L34 whole entry): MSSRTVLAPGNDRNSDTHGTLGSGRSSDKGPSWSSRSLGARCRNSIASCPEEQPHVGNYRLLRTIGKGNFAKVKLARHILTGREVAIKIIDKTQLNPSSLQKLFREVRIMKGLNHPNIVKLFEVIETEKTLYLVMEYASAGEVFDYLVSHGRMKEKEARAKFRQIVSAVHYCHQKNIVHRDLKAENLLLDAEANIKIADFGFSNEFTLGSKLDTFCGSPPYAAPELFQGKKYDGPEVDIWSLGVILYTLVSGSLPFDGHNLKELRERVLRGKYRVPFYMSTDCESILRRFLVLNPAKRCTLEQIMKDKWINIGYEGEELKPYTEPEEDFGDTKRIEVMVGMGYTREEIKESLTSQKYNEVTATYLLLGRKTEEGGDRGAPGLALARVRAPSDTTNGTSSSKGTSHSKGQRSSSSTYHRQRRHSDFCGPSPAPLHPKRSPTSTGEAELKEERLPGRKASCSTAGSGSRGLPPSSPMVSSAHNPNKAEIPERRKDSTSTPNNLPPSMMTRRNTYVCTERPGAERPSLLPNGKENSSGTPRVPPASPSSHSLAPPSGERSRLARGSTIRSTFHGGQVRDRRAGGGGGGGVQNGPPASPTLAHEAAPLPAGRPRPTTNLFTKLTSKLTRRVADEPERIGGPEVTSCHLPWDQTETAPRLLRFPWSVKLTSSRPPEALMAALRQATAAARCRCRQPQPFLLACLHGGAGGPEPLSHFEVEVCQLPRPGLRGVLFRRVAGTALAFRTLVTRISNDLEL
Chain of Aurora A (O14965 whole entry): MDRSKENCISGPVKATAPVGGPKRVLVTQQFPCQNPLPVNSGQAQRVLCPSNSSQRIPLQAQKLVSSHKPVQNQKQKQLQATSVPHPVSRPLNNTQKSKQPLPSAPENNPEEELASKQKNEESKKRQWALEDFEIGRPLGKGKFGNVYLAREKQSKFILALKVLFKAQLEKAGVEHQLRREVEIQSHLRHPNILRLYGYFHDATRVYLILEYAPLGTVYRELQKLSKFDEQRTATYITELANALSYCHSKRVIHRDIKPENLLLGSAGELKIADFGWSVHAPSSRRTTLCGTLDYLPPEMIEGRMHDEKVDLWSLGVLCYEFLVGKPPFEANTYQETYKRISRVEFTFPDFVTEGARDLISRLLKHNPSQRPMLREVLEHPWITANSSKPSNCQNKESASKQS
Chain of STK33 (Q9BYT3 whole entry): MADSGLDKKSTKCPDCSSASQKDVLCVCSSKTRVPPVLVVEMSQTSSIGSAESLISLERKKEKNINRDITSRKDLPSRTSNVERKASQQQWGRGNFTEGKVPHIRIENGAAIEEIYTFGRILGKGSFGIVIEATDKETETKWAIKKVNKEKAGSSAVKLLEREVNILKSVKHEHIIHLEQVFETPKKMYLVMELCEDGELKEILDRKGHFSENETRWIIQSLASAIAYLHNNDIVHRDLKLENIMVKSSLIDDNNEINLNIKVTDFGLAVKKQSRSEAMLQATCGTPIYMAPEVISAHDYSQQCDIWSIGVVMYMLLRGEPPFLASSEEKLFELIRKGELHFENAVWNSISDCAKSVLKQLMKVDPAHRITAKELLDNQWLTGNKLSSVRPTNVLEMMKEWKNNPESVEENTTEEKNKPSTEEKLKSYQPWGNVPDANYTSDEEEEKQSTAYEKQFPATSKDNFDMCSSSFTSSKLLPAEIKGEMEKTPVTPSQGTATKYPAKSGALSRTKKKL

`C=CC(=O)N1C[C@H](Nc2ncnc3[nH]ccc23)CC[C@@H]1C` [PF-06651600, 1-((2S,5R)-5-((7H-Pyrrolo[2,3-d]pyrimidin-4-yl)amino)-2-methylpiperidin-1-yl)prop-2-en-1-one, reference compound]: the “block of IL-2 induced STAT5 phosphorylation in spleenocytes” value in [1] was “able to block”.
What is called remaining activity is the signal under treatment as a percentage of the control signal. For `C=CC(=O)Nc1cccc(CNc2nc(Nc3ccc(N4CCN(C)CC4)cc3OC)ncc2Cl)c1` [TL6-144], the “number of other kinases inhibited by more than 80%” value in the test with panel of 139 kinases worked out at 4. For the same compound, the “activity remaining in the presence of the inhibitor: ABL” value on ABL is on record as 87. Besides, at Aurora A, the “activity remaining in the presence of the inhibitor: Aurora A” value is listed as 94. Moreover, the “activity remaining in the presence of the inhibitor: BRSK1” value on BRSK1 was determined as 103. For the same compound, the “activity remaining in the presence of the inhibitor: CK1γ2” value on CK1γ2 is 82. Further, the “activity remaining in the presence of the inhibitor: DDR2” value at DDR2 came out at 83. The “activity remaining in the presence of the inhibitor: DYRK3” value on DYRK3 came to 95. In addition, on EIF2AK3, the “activity remaining in the presence of the inhibitor: EIF2AK3” value amounted to 98. Besides, the “activity remaining in the presence of the inhibitor: EPH-A4” value on EPH-A4 worked out at 104. At EPH-B2, the “activity remaining in the presence of the inhibitor: EPH-B2” value is 96. Moreover, the “activity remaining in the presence of the inhibitor: EPH-B3” value at EPH-B3 is on record as 77. For the same compound, the “activity remaining in the presence of the inhibitor: IRAK1” value at IRAK1 is given as 81. On IRAK4, the “activity remaining in the presence of the inhibitor: IRAK4” value is 85. In addition, the “activity remaining in the presence of the inhibitor: JNK1” value at JNK1 was 83. Besides, the “activity remaining in the presence of the inhibitor: Lck” value at Lck is 77. The “activity remaining in the presence of the inhibitor: MARK1” value on MARK1 amounted to 87. Moreover, the “activity remaining in the presence of the inhibitor: MARK4” value on MARK4 was 76. On MLK1, the “activity remaining in the presence of the inhibitor: MLK1” value was 20. For the same compound, the remaining activity at 1 µM on PKBb worked out at 107%. In addition, the “activity remaining in the presence of the inhibitor: PKD1” value on PKD1 stood at 46. For the same compound, the “activity remaining in the presence of the inhibitor: RIPK2” value on RIPK2 is reported as 92. Besides, the “activity remaining in the presence of the inhibitor: SGK1” value at SGK1 turned out to be 100. The “activity remaining in the presence of the inhibitor: STK33” value on STK33 was determined as 81. The “activity remaining in the presence of the inhibitor: TIE2” value at TIE2 is 87. For the same compound, the “activity remaining in the presence of the inhibitor: TSSK1” value at TSSK1 is 34. Besides, the “activity remaining in the presence of the inhibitor: YES1” value on YES1 came to 89.
As to `C=CC(=O)Nc1cccc(CNc2nc(Nc3ccc(N4CCOCC4)cc3)ncc2Cl)c1` [TL8-52], in [1], the “block of IL-2 induced STAT5 phosphorylation in spleenocytes” value is reported as “able to block”. Moreover, the “number of other kinases inhibited by more than 80%” value in the test on panel of 139 kinases is given as 8. Further, the “activity remaining in the presence of the inhibitor: ABL” value on ABL was determined as 89. Further, the “activity remaining in the presence of the inhibitor: Aurora A” value on Aurora A is recorded as 13. Further, the “activity remaining in the presence of the inhibitor: BRSK1” value on BRSK1 is 86. The “activity remaining in the presence of the inhibitor: CK1γ2” value on CK1γ2 is reported as 96. Also, on DDR2, the “activity remaining in the presence of the inhibitor: DDR2” value is listed as 76. Besides, the “activity remaining in the presence of the inhibitor: DYRK3” value on DYRK3 is reported as 95. Also, on EIF2AK3, the “activity remaining in the presence of the inhibitor: EIF2AK3” value is 90. The “activity remaining in the presence of the inhibitor: EPH-A4” value on EPH-A4 was found to be 99. In addition, at EPH-B2, the “activity remaining in the presence of the inhibitor: EPH-B2” value turned out to be 81. Besides, the “activity remaining in the presence of the inhibitor: EPH-B3” value on EPH-B3 is given as 73. Moreover, on IRAK1, the “activity remaining in the presence of the inhibitor: IRAK1” value is 54. The “activity remaining in the presence of the inhibitor: IRAK4” value at IRAK4 came out at 77. Also, at JNK1, the “activity remaining in the presence of the inhibitor: JNK1” value is recorded as 104. For the same compound, at Lck, the “activity remaining in the presence of the inhibitor: Lck” value worked out at 73. In addition, the “activity remaining in the presence of the inhibitor: MARK1” value at MARK1 was 44. In addition, at MARK4, the “activity remaining in the presence of the inhibitor: MARK4” value is on record as 28. In addition, the “activity remaining in the presence of the inhibitor: MLK1” value on MLK1 came to 3. For the same compound, the remaining activity at 1 µM on PKBb amounted to 107%. Besides, the “activity remaining in the presence of the inhibitor: PKD1” value at PKD1 was determined as 86. On RIPK2, the “activity remaining in the presence of the inhibitor: RIPK2” value was found to be 71. The “activity remaining in the presence of the inhibitor: SGK1” value at SGK1 came to 89. Moreover, the “activity remaining in the presence of the inhibitor: STK33” value on STK33 came out at 94. The “activity remaining in the presence of the inhibitor: TIE2” value at TIE2 was 116. On TSSK1, the “activity remaining in the presence of the inhibitor: TSSK1” value amounted to 57. In addition, the “activity remaining in the presence of the inhibitor: YES1” value at YES1 amounted to 47.

Source of the values: publication PMC8115619, “Generation of a chemical genetic model for JAK3” (Scientific Reports, 2021).
